# Reference: patent US20100015079A1, “Cosmetic Compositions for the Protection or Regeneration of Hair or Skin” (Institut Dr. Schrader, priority 2006, published 2010)
# Assay: UVA-induced photon emission (chemiluminescence, ICL-H) of permanently waved hair tresses after treatment with rinse-off formulation
# Design: species or system human
# Conditions: Example 1; for UVA-induced photon emission (chemiluminescence), measure of hair damage: measured two days after treatment, damage by permanent wave alone 555%
# Procedure: The effect of taurinamide hydrochloride on the regeneration of permanently waved hair was investigated. For this, three tresses of European hair (left natural, dense, color 7.0; Kerling) were subjected to a permanent wave treatment. The permanent wave solution had the following composition:
# The tresses were washed for 1 min in a shaking machine (13.5% Texapon K12P in demineralized water) and rinsed for 2 minutes with lukewarm water. The tresses were saturated with permanent waving solution until drop-wet (10 ml for 3 tresses). After a contact time of 30 minutes, they were rinsed for 3 minutes with lukewarm water. The treatment with the permanent waving solution was repeated three times. The drop-wet tresses were then saturated with neutralizing solution (10 ml for 3 tresses). After a contact time of 10 minutes, they were rinsed for 3 minutes with lukewarm water.
# To determine the effect of taurinamide, the following rinse-off formulations which comprised varying amounts of taurinamide hydrochloride were used:
# The formulations were applied to the tresses from both sides using a paint brush on a glass plate (30 g for 3 tresses). After a contact time of 10 minutes, they were rinsed for 3 minutes with lukewarm water. The hair was then left to dry in the air.
# Two days after the treatment, the UVA-induced photon emission (chemiluminescence) was measured. The photon emission is a measure of the hair damage. It was measured in accordance with the method described by S. Benard, H. Nerenz, M. Rohr and A. Schrader in IFSCC magazine Vol. 4 (2001), 185-189 (ICL-H (Induced Chemiluminescence of Human Hair) A new method for quantitative analysis of hair stress).
structure (smiles),measurement,setting,value
"Cl.NCCS(N)(=O)=O [Taurinamide, taurinamide hydrochloride]","UVA-induced photon emission (chemiluminescence), measure of hair damage","0.1% by wt. taurinamide HCl rinse-off formulation 1.1, 10 min contact",329%
same,"UVA-induced photon emission (chemiluminescence), measure of hair damage","0.5% by wt. taurinamide HCl rinse-off formulation 1.2, 10 min contact",209%
same,"UVA-induced photon emission (chemiluminescence), measure of hair damage","1% by wt. taurinamide HCl rinse-off formulation 1.3, 10 min contact",185%
same,"UVA-induced photon emission (chemiluminescence), measure of hair damage","5% by wt. taurinamide HCl rinse-off formulation 1.4, 10 min contact",118%
same,effect of treatment on hair damage (in words),"permanently waved hair, 0.1-5% taurinamide formulations",significantly reduces hair damage
